# Patent US10266548B2, “Substituted benzylindazoles for use as Bub1 kinase inhibitors in the treatment of hyperproliferative diseases” (Bayer Intellectual Property GmbH, priority 2011, dated 2019)
# Read-outs that look alike come from different tables or passages of the source.
# Legend:
# [1] = tested on: HeLa cells; assay: Proliferation assay (HeLa cell line); format: cell-based; conditions: 4 days, crystal violet, read-out: Biological Assay 2: Proliferation assay (HeLa cell line) median IC50
# [2] = tested on: NCI-H460 cells; assay: Proliferation assay (H460 cell line); format: cell-based; conditions: Homo sapiens, NCI-H460, 96 h, H460, 4 days, crystal violet; read-out: Biological Assay 2: Proliferation assay (H460 cell line) median IC50
# Procedure: (§1) Cultivated tumor cells (cells were ordered from ATCC, except HeLa-MaTu and HeLa-MaTu-ADR, which were ordered from EPO-GmbH, Berlin) were plated at a density of 1000 to 5000 cells/well, depending on the growth rate of the respective cell line, in a 96-well multititer plate in 200 μL of their respective growth medium supplemented 10% fetal calf serum. After 24 hours, the cells of one plate (zero-point plate) were stained with crystal violet (see below), while the medium of the other plates was replaced by fresh culture medium (200 μl), to which the test substances were added in various concentrations (0 μM, as well as in the range of 0.001-10 μM; the final concentration of the solvent dimethyl sulfoxide was 0.5%). The cells were incubated for 4 days in the presence of test substances. Cell proliferation was determined by staining the cells with crystal violet: the cells were fixed by adding 20 μl/measuring point of an 11% glutaric aldehyde solution for 15 minutes at room temperature. After three washing cycles of the fixed cells with water, the plates were dried at room temperature. The cells were stained by adding 100 μl/measuring point of a 0.1% crystal violet solution (pH 3.0). After three washing cycles of the stained cells with water, the plates were dried at room temperature. The dye was dissolved by adding 100 μl/measuring point of a 10% acetic acid solution. […] The change of cell number, in percent, was calculated by normalization of the measured values to the aborbtion values of the zero-point plate (=0%) and the absorbtion of the untreated (0 μm) cells (=100%). The IC50 values were determined by means of a 4 parameter fit using the company's own software.
# [3] = tested on: B16F10 cells; assay: Proliferation assay (B16F10 cell line); format: cell-based; conditions: Mus musculus, B16-F10, 96 h, B16F10, 4 days, crystal violet; read-out: Biological Assay 2: Proliferation assay (B16F10 cell line) median IC50
# Procedure: as §1
# [4] = tested on: HeLa-MaTu-ADR cells; assay: Proliferation assay (HeLa-MaTu-ADR cell line); format: cell-based; conditions: 96 h; HeLa-MaTu-ADR, 4 days, crystal violet; read-out: Biological Assay 2: Proliferation assay (HeLa-MaTu-ADR cell line) median IC50
# Procedure: as §1
# [5] = tested on: Caco2 cells; assay: Proliferation assay (Caco2 cell line); format: cell-based; conditions: Homo sapiens, Caco-2, 96 h; Caco2, 4 days, crystal violet; read-out: Biological Assay 2: Proliferation assay (Caco2 cell line) median IC50
# Procedure: as §1
# [6] = biological target: catalytic domain of human Bub1 (amino acids 704-1085) (Homo sapiens (Human), UniProt O43683); assay: Bub1 kinase assay (TR-FRET); format: biochemical; conditions: 10 μM ATP, 1 μM peptide substrate; read-out: Biological Assay 1: Bub1 kinase assay median IC50
# Chain of catalytic domain of human Bub1 (amino acids 704-1085) (O43683 704-1085): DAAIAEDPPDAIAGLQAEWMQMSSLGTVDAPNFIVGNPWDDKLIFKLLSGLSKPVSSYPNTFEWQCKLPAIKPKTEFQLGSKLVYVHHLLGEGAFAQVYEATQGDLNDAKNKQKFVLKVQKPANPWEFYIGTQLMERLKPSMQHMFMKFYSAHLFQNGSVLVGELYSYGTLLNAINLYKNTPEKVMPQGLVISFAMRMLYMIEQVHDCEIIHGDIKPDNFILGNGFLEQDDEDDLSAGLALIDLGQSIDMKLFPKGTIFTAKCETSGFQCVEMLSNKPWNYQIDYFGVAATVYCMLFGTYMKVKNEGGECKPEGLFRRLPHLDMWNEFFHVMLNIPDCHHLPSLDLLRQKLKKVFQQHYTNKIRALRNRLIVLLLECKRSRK
# In short: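 Phosphoserine product detected by TR-FRET (Eu-labeled anti-mouse IgG/anti-phosphoserine antibody to streptavidin-XL665) after 1 h at 22 °C. IC50 from 4-parameter logistic fit.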
# [7] = tested on: MCF7 cells; assay: Proliferation assay (MCF7 cell line); format: cell-based; conditions: Homo sapiens, 96 h; MCF7, 4 days, crystal violet; read-out: Biological Assay 2: Proliferation assay (MCF7 cell line) median IC50
# Procedure: Cultivated tumor cells (cells were ordered from ATCC, except HeLa-MaTu and HeLa-MaTu-ADR, which were ordered from EPO-GmbH, Berlin) were plated at a density of 1000 to 5000 cells/well, depending on the growth rate of the respective cell line, in a 96-well multititer plate in 200 μL of their respective growth medium supplemented 10% fetal calf serum. After 24 hours, the cells of one plate (zero-point plate) were stained with crystal violet (see below), while the medium of the other plates was replaced by fresh culture medium (200 μl), to which the test substances were added in various concentrations (0 μM, as well as in the range of 0.001-10 μM; the final concentration of the solvent dimethyl sulfoxide was 0.5%). The cells were incubated for 4 days in the presence of test substances. Cell proliferation was determined by staining the cells with crystal violet: the cells were fixed by adding 20 μl/measuring point of an 11% glutaric aldehyde solution for 15 minutes at room temperature. […] Absorbtion was determined by photometry at a wavelength of 595 nm. The change of cell number, in percent, was calculated by normalization of the measured values to the aborbtion values of the zero-point plate (=0%) and the absorbtion of the untreated (0 μm) cells (=100%). The IC50 values were determined by means of a 4 parameter fit using the company's own software.
# [8] = tested on: DU145 cells; assay: Proliferation assay (DU145 cell line); format: cell-based; conditions: Homo sapiens, DU-145, 96 h, DU145, 4 days, crystal violet; read-out: Biological Assay 2: Proliferation assay (DU145 cell line) median IC50
# Procedure: as §1
Structure (SMILES),IC50 [1] [µM],IC50 [2] [µM],IC50 [3] [µM],IC50 [4] [µM],IC50 [5] [µM],IC50 [6] [µM],IC50 [7] [µM],IC50 [8] [µM],"IC50 ([1]; Homo sapiens, 96 h) [µM]"
"CCOc1cc(F)c(Cn2nc(-c3ncc(OC)c(Nc4ccncc4)n3)c3ccccc32)c(F)c1 [Example 2-5-1, 2-[1-(4-ethoxy-2,6-difluorobenzyl)-1H-indazol-3-yl]-5-methoxy-N-(pyridin-4-yl)pyrimidin-4-amine]",2.1,1.4,1.1,1.2,1.2,0.0046,3.1,1.7,
"COC(=O)c1ccc(Cl)c(Cn2nc(-c3ncc(OC)c(Nc4ccncc4)n3)c3ccccc32)c1Cl [Example 2-16-1, methyl 2,4-dichloro-3-({3-[5-methoxy-4-(pyridin-4-ylamino)pyrimidin-2-yl]-1H-indazol-1-yl}methyl)benzoate]",,2.9,0.99,1.2,2.6,0.0084,2,2,1.6
